From paper PMC5218480 (PLoS ONE, 2017)

Test system: MV-4-11 cells
Assay: Gene expression microarray analysis (Affymetrix PrimeView) and GSEA
Format: cell-based, human
Parameters: RFU PODN (11730768_x_at) / Fold change /veh PODN (11730768_x_at) / RFU LINC00158 (11744669_a_at) / Fold change /veh LINC00158 (11744669_a_at) / RFU DUSP10 (11751237_a_at) / Fold change /veh DUSP10 (11751237_a_at) / RFU ID3 (11757404_x_at) / Fold change /veh ID3 (11757404_x_at) / RFU PLEKHG5 (11737974_s_at) / Fold change /veh PLEKHG5 (11737974_s_at) / RFU LRRC4B (11730491_at) / Fold change /veh LRRC4B (11730491_at) / RFU GIMAP4 (11747438_a_at) / Fold change /veh GIMAP4 (11747438_a_at) / RFU KRT8 (11758183_x_at) / Fold change /veh KRT8 (11758183_x_at) / RFU CNN1 (11734310_a_at) / Fold change /veh CNN1 (11734310_a_at) / RFU VPS37D (11726825_at) / Fold change /veh VPS37D (11726825_at) / RFU C10orf10 (11716522_x_at) / Fold change /veh C10orf10 (11716522_x_at) / RFU KIR2DL2 /// KIR2DL4 /// KIR2DL5A /// KIR2DL5B /// KIR2DS1 /// KIR2DS2 /// KIR2DS3 /// KIR2DS4 /// KIR3DL3 /// KIR3DL3 /// KIR3DS1 (11738374_at) / Fold change /veh KIR2DL2 /// KIR2DL4 /// KIR2DL5A /// KIR2DL5B /// KIR2DS1 /// KIR2DS2 /// KIR2DS3 /// KIR2DS4 /// KIR3DL3 /// KIR3DL3 /// KIR3DS1 (11738374_at) / RFU C1QL1 (11718748_at) / Fold change /veh C1QL1 (11718748_at) / RFU TMPRSS4 (11747572_a_at) / Fold change /veh TMPRSS4 (11747572_a_at) / RFU HAMP (11756126_x_at) / Fold change /veh HAMP (11756126_x_at) / RFU RNFT2 (11725882_a_at) / Fold change /veh RNFT2 (11725882_a_at) / RFU NR4A2 (11747474_a_at) / Fold change /veh NR4A2 (11747474_a_at) / RFU ABCC12 (11746883_a_at) / Fold change /veh ABCC12 (11746883_a_at) / RFU TMEM136 (11760407_x_at) / Fold change /veh TMEM136 (11760407_x_at) / RFU CLDN22 /// WWC2 (11732394_at) / Fold change /veh CLDN22 /// WWC2 (11732394_at) / RFU HLA-DPB1 (11760878_x_at) / Fold change /veh HLA-DPB1 (11760878_x_at) / RFU SPINT1 (11716480_a_at) / Fold change /veh SPINT1 (11716480_a_at) / RFU GAP43 (11754022_s_at) / Fold change /veh GAP43 (11754022_s_at) / RFU A4GNT (11735810_at) / Fold change /veh A4GNT (11735810_at) / RFU PRB3 (11715151_x_at) / Fold change /veh PRB3 (11715151_x_at) / RFU TUBB4B (11761932_at) / Fold change /veh TUBB4B (11761932_at) / RFU CAPN14 (11732068_a_at) / Fold change /veh CAPN14 (11732068_a_at) / RFU TMCC2 (11721928_a_at) / Fold change /veh TMCC2 (11721928_a_at) / RFU IRGQ (11745062_a_at) / Fold change /veh IRGQ (11745062_a_at) / RFU FAM174B (11720279_a_at) / Fold change /veh FAM174B (11720279_a_at) / RFU TMPRSS4 (11748680_a_at) / Fold change /veh TMPRSS4 (11748680_a_at) / RFU FAM212B (11763350_a_at) / Fold change /veh FAM212B (11763350_a_at) / RFU PLEKHG5 (11743358_a_at) / Fold change /veh PLEKHG5 (11743358_a_at) / RFU ZSCAN30 (11745921_a_at) / Fold change /veh ZSCAN30 (11745921_a_at) / RFU CMKLR1 (11741424_a_at) / Fold change /veh CMKLR1 (11741424_a_at) / RFU LOC101060620 /// MAPK8IP1 (11723275_at) / Fold change /veh LOC101060620 /// MAPK8IP1 (11723275_at) / RFU SPTSSB (11747773_x_at) / Fold change /veh SPTSSB (11747773_x_at) / RFU PRSS12 (11739890_at) / Fold change /veh PRSS12 (11739890_at) / RFU BIN1 (11741810_x_at) / Fold change /veh BIN1 (11741810_x_at) / RFU WNT11 (11732464_a_at) / Fold change /veh WNT11 (11732464_a_at) / RFU C10orf10 (11716521_a_at) / Fold change /veh C10orf10 (11716521_a_at) / RFU C5orf56 (11738089_at) / Fold change /veh C5orf56 (11738089_at) / RFU CYB561 (11721691_x_at) / Fold change /veh CYB561 (11721691_x_at) / RFU ANKRD19P (11752326_a_at) / Fold change /veh ANKRD19P (11752326_a_at) / RFU OR2T12 /// OR2T33 /// OR2T8 (11738714_s_at) / Fold change /veh OR2T12 /// OR2T33 /// OR2T8 (11738714_s_at) / RFU VCAN (11748164_a_at) / Fold change /veh VCAN (11748164_a_at) / RFU JSRP1 (11732532_at) / Fold change /veh JSRP1 (11732532_at) / RFU KRTAP10-11 (11738290_x_at) / Fold change /veh KRTAP10-11 (11738290_x_at) / RFU MYO3A (11730013_a_at) / Fold change /veh MYO3A (11730013_a_at) / RFU EBF3 (11725865_a_at) / Fold change /veh EBF3 (11725865_a_at) / RFU CAMK2N1 (11719241_x_at) / Fold change /veh CAMK2N1 (11719241_x_at) / RFU C5orf56 (11738088_a_at) / Fold change /veh C5orf56 (11738088_a_at) / RFU OLFML3 (11715873_a_at) / Fold change /veh OLFML3 (11715873_a_at) / RFU LOC100653217 /// NTM (11731650_a_at) / Fold change /veh LOC100653217 /// NTM (11731650_a_at) / RFU MAPK11 (11762145_a_at) / Fold change /veh MAPK11 (11762145_a_at) / RFU FIZ1 (11724087_x_at) / Fold change /veh FIZ1 (11724087_x_at) / RFU OASL (11726364_x_at) / Fold change /veh OASL (11726364_x_at) / RFU SOX15 (11748057_x_at) / Fold change /veh SOX15 (11748057_x_at) / RFU CD79A (11719716_a_at) / Fold change /veh CD79A (11719716_a_at) / RFU HIST1H1D (11736915_at) / Fold change /veh HIST1H1D (11736915_at) / RFU CASKIN2 (11723855_a_at) / Fold change /veh CASKIN2 (11723855_a_at) / RFU LOC730098 (11760151_x_at) / Fold change /veh LOC730098 (11760151_x_at) / RFU OR4N2 (11742367_at) / Fold change /veh OR4N2 (11742367_at) / RFU PRRT2 (11749266_a_at) / Fold change /veh PRRT2 (11749266_a_at) / RFU SNX32 (11753110_a_at) / Fold change /veh SNX32 (11753110_a_at) / RFU CDHR5 (11726645_a_at) / Fold change /veh CDHR5 (11726645_a_at) / RFU RCAN1 (11760418_a_at) / Fold change /veh RCAN1 (11760418_a_at) / RFU FAM167A (11723789_a_at) / Fold change /veh FAM167A (11723789_a_at) / RFU FAM26E (11764081_at) / Fold change /veh FAM26E (11764081_at) / RFU ISYNA1 (11749810_s_at) / Fold change /veh ISYNA1 (11749810_s_at) / RFU ACY1 (11761880_at) / Fold change /veh ACY1 (11761880_at) / RFU 11764098_at / Fold change /veh 11764098_at / RFU SAMD14 (11745864_x_at) / Fold change /veh SAMD14 (11745864_x_at) / RFU NPB (11741838_a_at) / Fold change /veh NPB (11741838_a_at) / RFU TMPRSS6 (11731388_a_at) / Fold change /veh TMPRSS6 (11731388_a_at) / RFU KRTAP10-2 (11738614_at) / Fold change /veh KRTAP10-2 (11738614_at) / RFU ARHGAP8 /// PRR5-ARHGAP8 (11727945_x_at) / Fold change /veh ARHGAP8 /// PRR5-ARHGAP8 (11727945_x_at) / RFU KRTAP5-7 /// NADSYN1 (11734609_at) / Fold change /veh KRTAP5-7 /// NADSYN1 (11734609_at) / RFU RASL12 (11751679_a_at) / Fold change /veh RASL12 (11751679_a_at) / RFU CDKN2B (11736163_a_at) / Fold change /veh CDKN2B (11736163_a_at) / RFU PRF1 (11729649_at) / Fold change /veh PRF1 (11729649_at) / RFU, ZNF638 /// ZNF638-IT1 / Fold change vs veh, ZNF638 /// ZNF638-IT1 / RFU, PANK3 / Fold change vs veh, PANK3 / RFU, SH3YL1 / Fold change vs veh, SH3YL1 / RFU, ZEB2 / Fold change vs veh, ZEB2 / RFU, NRIP1 / Fold change vs veh, NRIP1 / RFU, PTTG1IP / Fold change vs veh, PTTG1IP / RFU, CAPN2 / Fold change vs veh, CAPN2 / RFU, MED14 / Fold change vs veh, MED14 / RFU, SNORA58 / Fold change vs veh, SNORA58 / RFU, C1orf63 / Fold change vs veh, C1orf63 / RFU, LRRFIP1 / Fold change vs veh, LRRFIP1 / RFU, NDUFAF7 / Fold change vs veh, NDUFAF7 / RFU, SLC12A2 / Fold change vs veh, SLC12A2 / RFU, IBTK / Fold change vs veh, IBTK / RFU, ESF1 / Fold change vs veh, ESF1 / Fold change vs veh, TMEM50B / RFU, TAOK1 / Fold change vs veh, TAOK1 / RFU, ACBD3 / Fold change vs veh, ACBD3 / RFU, TMA16 / Fold change vs veh, TMA16 / RFU, RWDD3 / Fold change vs veh, RWDD3 / RFU, BCAT1 / Fold change vs veh, BCAT1 / RFU, EDEM3 / Fold change vs veh, EDEM3 / RFU, TMEM33 / Fold change vs veh, TMEM33 / RFU, WDR75 / Fold change vs veh, WDR75 / RFU, AHCTF1 / Fold change vs veh, AHCTF1 / RFU, TFRC / Fold change vs veh, TFRC / RFU, ZDHHC17 / Fold change vs veh, ZDHHC17 / RFU, NOM1 / Fold change vs veh, NOM1 / RFU, ARL8B / Fold change vs veh, ARL8B / RFU, ZBTB11 / Fold change vs veh, ZBTB11 / RFU, TAMM41 / Fold change vs veh, TAMM41 / RFU, KIAA1704 /// LOC100996395 / Fold change vs veh, KIAA1704 /// LOC100996395 / RFU, ING1 / Fold change vs veh, ING1 / RFU, TRMT61B / Fold change vs veh, TRMT61B / RFU, FUBP3 / Fold change vs veh, FUBP3 / RFU, TP53 / Fold change vs veh, TP53 / RFU, TNKS2 / Fold change vs veh, TNKS2 / RFU, ZFP14 / Fold change vs veh, ZFP14 / RFU, ACTR2 / Fold change vs veh, ACTR2 / RFU, PPP3R1 / Fold change vs veh, PPP3R1 / RFU, PIK3R1 / Fold change vs veh, PIK3R1 / RFU, HNRNPA1 / Fold change vs veh, HNRNPA1 / RFU, RNF170 / Fold change vs veh, RNF170 / RFU, ZNF28 / Fold change vs veh, ZNF28 / RFU, RNGTT / Fold change vs veh, RNGTT / RFU, OGT / Fold change vs veh, OGT / RFU, BRD1 / Fold change vs veh, BRD1 / RFU, MARS / Fold change vs veh, MARS / RFU, ZNF655 / Fold change vs veh, ZNF655 / RFU, FAHD1 / Fold change vs veh, FAHD1 / RFU, BDP1 / Fold change vs veh, BDP1 / RFU, LRRCC1 / Fold change vs veh, LRRCC1 / RFU, ARID1A / Fold change vs veh, ARID1A / RFU, ZNF146 / Fold change vs veh, ZNF146 / RFU, ZNF330 / Fold change vs veh, ZNF330 / RFU, GPN3 / Fold change vs veh, GPN3 / RFU, C9orf123 / Fold change vs veh, C9orf123 / RFU, N4BP2L2 / Fold change vs veh, N4BP2L2 / RFU, ARFIP1 / Fold change vs veh, ARFIP1 / RFU, FAM179B / Fold change vs veh, FAM179B / RFU, BCL10 / Fold change vs veh, BCL10 / RFU, UHRF1BP1L / Fold change vs veh, UHRF1BP1L / RFU, BET1 / Fold change vs veh, BET1 / RFU, CNOT2 / Fold change vs veh, CNOT2 / RFU, ZNF268 / Fold change vs veh, ZNF268 / Fold change vs veh, ZNF507 / RFU, DGCR2 / Fold change vs veh, DGCR2 / RFU, WDSUB1 / Fold change vs veh, WDSUB1 / Fold change vs veh, HSP90B1 /// MIR3652 / RFU, ADSS / Fold change vs veh, ADSS / RFU, GK / Fold change vs veh, GK / RFU, ZNF148 / Fold change vs veh, ZNF148 / RFU, TAF9 / Fold change vs veh, TAF9 / RFU, SLC1A5 / Fold change vs veh, SLC1A5 / RFU, SLMO2 / Fold change vs veh, SLMO2 / RFU, ABCC4 / Fold change vs veh, ABCC4 / RFU, LOC101060439 /// RAP1B / Fold change vs veh, LOC101060439 /// RAP1B / RFU, RFX7 / Fold change vs veh, RFX7 / RFU, GTPBP10 / Fold change vs veh, GTPBP10 / RFU, CNEP1R1 / Fold change vs veh, CNEP1R1 / RFU, BIVM-ERCC5 /// ERCC5 / Fold change vs veh, BIVM-ERCC5 /// ERCC5 / RFU, ILF3 / Fold change vs veh, ILF3 / RFU 11762660_at / Fold change /veh 11762660_at / RFU VCAN (11757783_s_at) / Fold change /veh VCAN (11757783_s_at) / RFU DDX43 (11728927_at) / Fold change /veh DDX43 (11728927_at) / RFU KRT8 (11758188_x_at) / Fold change /veh KRT8 (11758188_x_at) / RFU NKD1 (11759106_at) / Fold change /veh NKD1 (11759106_at) / RFU SRD5A1 (11742802_a_at) / Fold change /veh SRD5A1 (11742802_a_at) / RFU TPSAB1 /// TPSB2 (11721975_s_at) / Fold change /veh TPSAB1 /// TPSB2 (11721975_s_at) / RFU GSTM3 (11746129_a_at) / Fold change /veh GSTM3 (11746129_a_at) / RFU IL23R (11737362_x_at) / Fold change /veh IL23R (11737362_x_at) / RFU TMEM51 (11727254_a_at) / Fold change /veh TMEM51 (11727254_a_at) / RFU PIWIL2 (11732686_x_at) / Fold change /veh PIWIL2 (11732686_x_at) / RFU ORM1 (11744905_x_at) / Fold change /veh ORM1 (11744905_x_at) / RFU CCDC152 (11743942_at) / Fold change /veh CCDC152 (11743942_at) / RFU ECM1 (11717891_a_at) / Fold change /veh ECM1 (11717891_a_at) / RFU IL23R (11748794_a_at) / Fold change /veh IL23R (11748794_a_at) / RFU TNFAIP8L3 (11732012_x_at) / Fold change /veh TNFAIP8L3 (11732012_x_at) / RFU MBOAT4 (11741988_at) / Fold change /veh MBOAT4 (11741988_at) / RFU 11764193_at / Fold change /veh 11764193_at / RFU TMEM53 (11763286_at) / Fold change /veh TMEM53 (11763286_at) / RFU MAGEB2 (11727129_at) / Fold change /veh MAGEB2 (11727129_at) / RFU TMEM200A (11744735_a_at) / Fold change /veh TMEM200A (11744735_a_at) / RFU CCDC152 (11751479_a_at) / Fold change /veh CCDC152 (11751479_a_at) / RFU FAM211A (11726209_a_at) / Fold change /veh FAM211A (11726209_a_at) / RFU RGS16 (11746705_a_at) / Fold change /veh RGS16 (11746705_a_at) / RFU VCAN (11755009_s_at) / Fold change /veh VCAN (11755009_s_at) / RFU RHOB (11743442_s_at) / Fold change /veh RHOB (11743442_s_at) / RFU RGS16 (11720943_a_at) / Fold change /veh RGS16 (11720943_a_at) / RFU RGS16 (11720944_at) / Fold change /veh RGS16 (11720944_at) / RFU, VPS4B / Fold change vs veh, VPS4B / RFU, CREB1 / Fold change vs veh, CREB1 / RFU, DNAJC13 / Fold change vs veh, DNAJC13 / RFU, GNAQ / Fold change vs veh, GNAQ / RFU, CDK5R1 / Fold change vs veh, CDK5R1 / RFU, ZRANB3 / Fold change vs veh, ZRANB3 / RFU, CUL4A / Fold change vs veh, CUL4A / RFU, CCNY / Fold change vs veh, CCNY / RFU, UFL1 / Fold change vs veh, UFL1 / RFU, COG3 / Fold change vs veh, COG3 / RFU, DIAPH2 / Fold change vs veh, DIAPH2 / RFU, SKA2 / Fold change vs veh, SKA2 / RFU, AFF3 / Fold change vs veh, AFF3 / RFU, LMF1 / Fold change vs veh, LMF1 / RFU, IPO11 / Fold change vs veh, IPO11 / RFU, DFFB / Fold change vs veh, DFFB / RFU, FOXP1 / Fold change vs veh, FOXP1 / RFU, CARD8 / Fold change vs veh, CARD8 / RFU, STRN3 / Fold change vs veh, STRN3 / RFU, ADK / Fold change vs veh, ADK / RFU, RASSF2 / Fold change vs veh, RASSF2 / RFU, WIPF1 / Fold change vs veh, WIPF1 / RFU, LARP1B / Fold change vs veh, LARP1B / RFU, RASA1 / Fold change vs veh, RASA1 / RFU, RB1 / Fold change vs veh, RB1 / RFU, PPFIA1 / Fold change vs veh, PPFIA1 / RFU, MAT2A / Fold change vs veh, MAT2A / RFU, CCT5 / Fold change vs veh, CCT5 / RFU, WDR92 / Fold change vs veh, WDR92 / RFU, CUX1 / Fold change vs veh, CUX1 / RFU, TTC7A / Fold change vs veh, TTC7A / RFU, TMEM135 / Fold change vs veh, TMEM135 / RFU, DEPTOR / Fold change vs veh, DEPTOR / RFU, CPM / Fold change vs veh, CPM / RFU, DNAJB6 / Fold change vs veh, DNAJB6 / RFU, CACNA2D3 / Fold change vs veh, CACNA2D3 / RFU, DTX4 / Fold change vs veh, DTX4 / RFU, TFCP2 / Fold change vs veh, TFCP2 / RFU, GMCL1 /// GMCL1P1 / Fold change vs veh, GMCL1 /// GMCL1P1 / RFU, AEBP2 / Fold change vs veh, AEBP2 / RFU, SNHG1 /// SNORD22 /// SNORD25 /// SNORD26 /// SNORD27 /// SNORD28 /// SNORD29 /// SNORD31 / Fold change vs veh, SNHG1 /// SNORD22 /// SNORD25 /// SNORD26 /// SNORD27 /// SNORD28 /// SNORD29 /// SNORD31 / Fold change (Aza/veh), C12orf56 (ProbeSet 11735607_a_at) / Fold change (ACY-1035/veh), C12orf56 (ProbeSet 11735607_a_at) / Fold change (Aza/veh), FGFR1OP (ProbeSet 11751329_s_at) / Fold change (ACY-1035/veh), FGFR1OP (ProbeSet 11751329_s_at) / Fold change (Aza/veh), VPS36 (ProbeSet 11739960_a_at) / Fold change (ACY-1035/veh), VPS36 (ProbeSet 11739960_a_at) / RFU SYPL1 (11715823_x_at) / Fold change /veh SYPL1 (11715823_x_at) / RFU IGFBP7 (11715501_s_at) / Fold change /veh IGFBP7 (11715501_s_at) / RFU REEP3 (11722064_at) / Fold change /veh REEP3 (11722064_at) / RFU IGLL1 (11728026_x_at) / Fold change /veh IGLL1 (11728026_x_at): dose or concentration left out as unconfirmed
Settings: MV-4-11 cells, 48 hours

Compound: Nc1ccc(-c2cccs2)cc1NC(=O)c1ccc2c(c1)cc(C1CC1)n2CCN1CCOCC1 [ACY-1035]
- RFU ID3 (11757404_x_at): 47.18 RFU
